Assays:
[1] = tested on: subjects with migraine headache; test: Open-label pilot study of safety, effectiveness and tolerability in the prophylactic treatment of migraine (Example 1); format: in vivo, human
Protocol: An open-label pilot study was performed to evaluate the safety, effectiveness and tolerability of the MAOI isocarboxyzid (Marplan®) in the prophylactic treatment of migraine.
Male and female subjects 18-60 years of age were recruited. […] The subject must have had approximately 3-12 migraine headaches per month for the 3 months prior to entering the screening period. Major exclusion criteria included a history of cluster headache, migraine with prolonged aura, and atypical forms of migraine. […] Concomitant use of tryptans, NSAID's, antidepressants and other commonly used ant-migraine agents was prohibited. The Headache Assessment Scale and other assessments were recorded at Baseline and Weeks 1, 4, 8, 12, 16 and 20. Primary safety and efficacy analysis were based on the intention-to-treat population. Safety data included laboratory data, adverse events, vital signs, and ECG's. The primary efficacy measure was within-subject change from baseline in migraine frequency.
Fourteen subjects had at least on post-baseline assessment, and seven subjects completed the full 20 weeks of treatment (Table 1a,b). […] Five subjects (31%) withdrew due to adverse events. […] The mean does for completers at the end of study was 38.6 mg (Table 2). […] At baseline, subjects reported an average migraine frequency of 5.2 +1.9 attacks/month. […] At week 20, a frequency of 0.4±0.7 (p<0.001) was observed. […] Because of the small number of subjects and relatively high dropout rate, an analysis of the data using a Last Observation Carried Forward (LOF) procedure was undertaken.

[2] = tested on: patients suffering from migraine without aura; test: Double blind, randomized, placebo-controlled study in migraine without aura (Example 3); format: in vivo, human; conditions: 10 mg to 40 mg per day, oral
Source text: (§1) A total of 16 patients participate in the study in […]. The age of the recruited patients ranges between 18 years and 75 years. Both male and female patients are selected for the study. Recruitment period for the study is 5 months.
(§2) Isocarboxazid is prescribed as a prophylaxis to one group of patients. Also, isocarboxazid is prescribed after the expression of symptoms to another group of patients. […] Dose increments are based on the investigator's judgment of the patient's response. After 4 weeks of therapy on 20 mg per day, the doses may be increased to 30 mg per day, 10 mg in the AM and 20 mg in the PM. After 4 weeks of therapy on 30 mg per day, doses may be increased to 40 mg per day, 20 mg in the AM and 20 mg in the PM. After 4 weeks of 40 mg per day, the doses may be increased to 50 mg per day, 20 mg in the AM and 30 mg in the PM. After 4 weeks of 50 mg per day, the doses may be increased to 60 mg per day, 30 mg in the AM and 30 mg in the PM. The duration of the medication treatment is a total of 20 weeks.
Patients in the study are diagnosed for the symptoms of migraine without aura. Diagnosis is performed according to the criteria set forth by the International Headache Society. […]
(§3) In order to determine the efficacy of isocarboxazid, pain intensity is evaluated on an assessment scale and recoded in an assessment sheet. […]
(§4) The collected data are statistically analyzed.

migraine patients = test: Study of preventing migraines (Example 5); format: in vivo, human
Source text: (§5) This study is designed to evaluate the efficacy of isocarboxazid in preventing migraines and in the treatment of chronic tension-type headache.
(§6) A total of 61 patients suffering from chronic tension-type headache are recruited. […] While on this therapy, 35 of the 42 migraine patients and 16 of the 17 patients with tension-type headaches are experiencing good or very good improvement in their symptoms. […] In tension-type headaches, the effect may occur at the earliest 3-6 weeks and in the case of migraines at the earliest 6-8 weeks after the start of treatment. The therapeutic result is independent of any concurrent depression.

[3] = tested on: patients suffering from migraine with aura; test: Double blind, randomized, placebo-controlled study in migraine with aura (Example 2); format: in vivo, human; conditions: 10 mg to 40 mg per day, oral
Protocol: A double blind, multicenter, randomized, placebo-controlled study is performed to evaluate the efficacy of isocarboxazid in treating patients suffering from migraine with aura.
as §1
as §2, with “weeks. […]” for “weeks.”
as §3, §4

[4] = human, in vivo, inhaled or intranasal, 10 mg
acute migraine headaches = test: Double blind, placebo-controlled single dose study in acute migraine headaches (Example 4); format: in vivo, human; conditions: 20 and 40 mg single doses; after 2 hrs and 24 hours
Protocol: A double blind, multicenter, randomized, placebo-controlled single dose study to evaluate the efficacy of isocarboxazid in the treatment of acute migraine headaches is conducted.
The study consists of a screening visit, at home treatment of a single migraine attack, and a follow up visit 1-5 days following treatment. In addition to safety evaluations, the patients are evaluated for efficacy based on superiority over the placebo at 2 hour and 24 hour periods
after dosing for a) pain relief; b) incidence of photophobia; c) incidence of phonophobia; and d) incidence of nausea.
The results are collected from 30 patients.

[5] = tested on: patients with tension-type headaches; test: Study of treatment of chronic tension-type headache (Example 5); format: in vivo, human
Source text: as §5, §6

## Cc1cc(C(=O)NNCc2ccccc2)no1 [isocarboxazid]
[1]; 16 subjects at baseline visit, 20 weeks
  Discontinued (Lack of efficacy), number of subjects (%): 0 (0%)
[1]; LOCF, n 14, p-value 7.0 × 10^−6
  Change from baseline (mean ± SD) in migraine frequency: 3.8 ± 2.8
[1]; Observed cases, n 7, p-value 1.5 × 10^−7
  Change from baseline (mean ± SD) in migraine frequency: 5.9 ± 1.5
[1]; all subjects
  reduction in migraine frequency during the course of treatment: significant reduction
[1]; both, human, in vivo, 20 weeks
  Adverse Event: Anxiety, Number: 1
  Adverse Event: Fatigue, Number: 2
  Adverse Event: Insomnia, Number: 1
  Adverse Event: Nosebleed, Number: 1
  Discontinued (Adverse Experience), number of subjects (%): 5 (31%)
  subjects who withdrew due to adverse events: 31%
[1]; by week 16, all subjects completing the study, FIG. 3
  reduction in migraine frequency (clinically significant response) reached by all completers: ≥ 50%
[1]; most subjects, FIG. 1, titrated from 20 mg per day up to 60 mg per day
  maximum dose tolerated by most subjects: 20 to 40 mg/day
[1]; week 8, FIG. 2
  reductions in migraine frequency by week 8: significant reductions
[1]; week 20, baseline 5.2 +1.9 attacks/month, p<0.001
  migraine frequency at week 20: 0.4±0.7 attacks/month
[2]
  effect versus placebo in treating and preventing migraine without aura: superior effect over the placebo
Migraine patients; migraine patients, 10 to 60 mg daily dose, about 8 months on average
  patients experiencing good or very good improvement in their symptoms: 35 of the 42
Migraine patients; migraines
  earliest occurrence of the effect after the start of treatment: 6-8 weeks
[3]
  effect versus placebo in treating and preventing migraine with aura: superior effect over the placebo
[4]
  share of the maximum plasma concentration (Cmax) reached at 30 minutes after administration: 60%
Acute migraine headaches
  effect versus placebo in treating acute headaches: superior effect over a placebo
[5]
  earliest occurrence of the effect after the start of treatment: 3-6 weeks
[5]; 10 to 60 mg daily dose, about 8 months on average
  patients experiencing good or very good improvement in their symptoms: 16 of the 17

Reference: patent publication US20160067187A1, “Methods for Treating or Preventing Migraines” (Validus Pharmaceuticals LLC, priority 2005, published 2016)
